{"source": "patent US20220260587A1", "about": "“METHOD” (Worg Pharmaceuticals (Hangzhou) Co., Ltd., priority 2019, published 2022)", "key": {"[1]": {"target": "MHCII (HLA-DR2) with bound CLIP (MHCII-CLIP) (Homo sapiens, UniProt P01903+P01911)", "sequence (P01903 26-254)": "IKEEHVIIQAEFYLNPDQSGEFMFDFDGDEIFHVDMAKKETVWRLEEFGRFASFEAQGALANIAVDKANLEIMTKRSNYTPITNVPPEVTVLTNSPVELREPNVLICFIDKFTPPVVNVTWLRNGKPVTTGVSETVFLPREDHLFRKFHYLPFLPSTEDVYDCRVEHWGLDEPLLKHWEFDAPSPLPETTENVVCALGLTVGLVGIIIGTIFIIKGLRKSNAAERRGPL", "sequence (P01911 30-227 limits assumed)": "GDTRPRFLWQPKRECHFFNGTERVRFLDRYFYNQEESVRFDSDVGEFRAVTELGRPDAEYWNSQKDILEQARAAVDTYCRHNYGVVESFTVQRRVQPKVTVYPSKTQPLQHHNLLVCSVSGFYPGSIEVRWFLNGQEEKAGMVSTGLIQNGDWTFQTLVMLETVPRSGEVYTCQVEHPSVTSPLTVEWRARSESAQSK", "assay": "CLIP displacement assay", "assay_type": "cell-based", "settings": "MBP-specific T cell line 24 hours", "description": "Response of MBP-specific T cell line to HLA-DR2 monomers following peptide exchange. Biotinylated HLA-DR2 (DRB1*1501) monomers, with the CLIP peptide bound, were attached to neutravidin coated 96 well plates. Wells were incubated with the indicated concentration of MBP 83-99, a dominant HLA-DR2 restricted epitope of MBP, for 16 hours and the plates washed. Control wells were coated with the DR2 monomer pre-loaded with the MBP 83-99 peptide. A T cell line specific for MBP was incubated with the monomers at 37° C. for 24 hours and response assessed by measurement of secreted IL-2.\nMHCII (HLA-DR2) with bound CLIP (MHCII-CLIP) was affixed to wells of a 96-well plate using neutravidin and biotin. In particular, 96-well plates were coated with 15 μg/ml neutravidin in PBS overnight at 4° C. Plates were washed twice with wash buffer (0.1% BSA/PBS) and blocked with 1% BSA in PBS for 2 hours at room temperature. Plates were washed twice with wash buffer and 0.125 μg/ml of biotin-MHCII-CLIP in PBS was added for a 2-hour incubation at room temperature in a humid atmosphere. Plates were washed 4 times with wash buffer, leaving wells coated in MHCII-CLIP. Positive control wells were coated with MHCII with bound MBP 83-99 (instead of CLIP). […]\nT cell activation was assessed by measuring secreted IL2."}, "MHCII on dendritic cells": {"test_system": "MHCII on dendritic cells", "assay": "In vivo MHCII loading assay", "parameters": "species or system HLA-DRtg mice", "settings": "for CD4+ T cell activation (IFNγ) by dendritic cells loaded in vivo: 100 μg peptide subcutaneously, spleen CD11c+ cells 2 hours post injection, co-culture 72 hours, FIG. 4", "description": "Response of peptide-specific CD4^+ T cells towards peptide loaded in vivo on dendritic cells. […] 2 h post injection, spleens were dissected and CD11c^+ cells (dendritic cells) were isolated. These CD11c^+ cells were co-cultured with peptide-specific CD4+ cells for 72 h at 37° C. IFNγ was measured in the supernatant of these cultures to evaluate the response to peptide by the CD4^+ T cells.\nIn particular, HLA-DRtg mice were injected with 100 μg of peptide in 100 μl PBS subcutaneously in the flank. Control animals received a subcutaneous injection of 100 μl PBS. After 2 hours, spleens were harvested and single-cell suspensions were made. CD11c^+ cells (splenic dendritic cells) were positively selected using CD11c microbeads according to the manufacturer's instructions (Miltenyi Biotec, Bergisch Gladbach, Germany). Average purities of >92% were reached.\n1×10^5 CD11c^+ cells were co-cultured with 1×10^5 CD4^+ cells (primary T cells) in round bottom 96-well plates in X-vivo 15 medium (supplemented with 2 mM L-glutamine, 50 U/mL penicillin and 50 U/mL streptomycin; Lonza). The CD4^+ cells were isolated from HLA-DRtg mice that were immunised subcutaneously in the base of the tail with 50 μg peptide emulsified in CFA (peptide/CFA). Ten days after immunisation, draining lymph nodes (LN) and spleens were harvested. LN cells and splenocytes were isolated and CD4^+ T cells were isolated by negative selection using Magnisort Mouse CD4 Isolation kit (ThermoFisher Scientific) according to the manufacturer's instructions.\nAfter 72 hours, supernatant of the CD11c^+-CD4^+ co-cultures was collected. CD4^+ T cell activation was analysed by IFNγ ELISA (R&D Systems, Abingdon, UK). In a parallel experiment, CD4^+ T cell responses towards peptide added in vitro were assessed to make sure the T cells recognize the peptides presented by the CD11c^+ cells."}, "MHCII": {"test_system": "MHCII", "settings": "test peptides of the competition assay; cited from earlier work"}, "[2]": {"test_system": "response to protein antigen (SAg) in lymph node and spleen cells", "assay": "Ex vivo tolerance assay", "assay_type": "in vivo, HLA-DR transgenic mice", "settings": "dose-escalating subcutaneous injections (0,1; 1; 10 and 3×100 μg), IFNg response to SAg, FIG. 5", "description": "Response to protein antigen in lymph nodes (A) and spleens (B) of peptide-treated and non-treated mice. HLA-DR transgenic mice were treated with a dose-escalating regime of subcutaneous injections (0,1; 1; 10 and 3×100 μg every other day) of a tolerogenic (peptide Q) or non-tolerogenic (peptide P) peptide, or control injections (PBS). Afterwards, mice were immunized with peptide antigen in CFA and 10 days later, lymph nodes and spleens were dissected. Lymph node and spleen cells were cultured in vitro for 3 days at 37° C. in the presence of protein antigen (SAg) or positive control (PPD). The response of the cells towards the protein antigen was evaluated by measuring IFNg levels in supernatant of the cultures. *p<0.05\nHLA-DRtg mice were injected subcutaneously in the flank region with 0.1 μg, 1 μg and 10 μg of peptide on days −15, −13 and −11 respectively, followed by 3 injections of 100 μg peptide on days −8, −6 and −4 (dose escalation schedule). On day 0, the mice were immunised subcutaneously in the base of the tail with 50 μg antigen (parental peptide) emulsified in CFA (peptide/CFA).\nTen days after immunisation, draining lymph nodes (LN) and spleens were harvested. […]\nIFNγ concentrations in supernatants were assessed by cytokine ELISA (R&D Systems, Abingdon, UK) and cell activation was measured."}, "EAE": {"test_system": "EAE", "settings": "cited from earlier work"}}}
{"substance": "ENPVVHFFKNIVTPRIP [MBP 83-99]", "values": [{"measurement": "T cell activation (secreted IL2)", "setting": "[1]; MBP 83-99 at 3 μM added to MHCII-CLIP (CLIP monomer) for 16 hours", "result": "T cells are activated"}, {"measurement": "T cell activation (secreted IL2)", "setting": "[1]; MBP 83-99 at 30 μM added to MHCII-CLIP (CLIP monomer) for 16 hours", "result": "T cells are activated"}]}
{"substance": "GILVSYQIKVK (H-GILVSYQIKVK-NH2) [Peptide N]", "values": [{"measurement": "CD4+ T cell activation (IFNγ) by dendritic cells loaded in vivo", "setting": "MHCII on dendritic cells", "result": "did not cause T cell activation"}, {"measurement": "HLA-DR binding", "setting": "MHCII on dendritic cells; designation in legend of FIG. 4", "result": "HLA-DR non-binding"}]}
{"substance": "GLKMFPDLTKVYSTD (H-GLKMFPDLTKVYSTD-NH2) [Peptide L]", "values": [{"measurement": "affinity for MHCII (known)", "setting": "MHCII", "result": "good affinity"}]}
{"substance": "KKEIFKKISRDKSVTIYLEKK (H-KKEIFKKISRDKSVTIYLEKK-NH2) [Peptide M]", "values": [{"measurement": "affinity for MHCII (known)", "setting": "MHCII", "result": "poor affinity"}]}
{"substance": "KKIFKKISRDKSVTIYLKK (H-KKIFKKISRDKSVTIYLKK-NH2) [Peptide P]", "values": [{"measurement": "tolerogenicity", "setting": "[2]", "result": "non-tolerogenic"}]}
{"substance": "KKKGILVSYQIKVKKKK (H-KKKGILVSYQIKVKKKK-NH2) [Peptide 0]", "values": [{"measurement": "CD4+ T cell activation (IFNγ) by dendritic cells loaded in vivo", "setting": "MHCII on dendritic cells", "result": "did"}]}
{"substance": "KKKIFKKISRDKSVTIYLKKK (H-KKKIFKKISRDKSVTIYLKKK-NH2) [Peptide Q]", "values": [{"measurement": "tolerogenicity", "setting": "[2]", "result": "tolerogenic"}]}
{"substance": "LILLPLLANNRERRGIALDGKIKHEDTNLASSTIIKEG [Peptide K]", "values": [{"measurement": "affinity for MHCII (known)", "setting": "MHCII", "result": "poor affinity"}]}
{"substance": "MBP peptide 89-101: myelin basic protein (MBP) peptide 89-101, immunodominant antigen after immunisation (PHLIRLFSRDAPG; UniProt P02686 89-101, looked up, fragment)", "values": [{"measurement": "inducing tolerance", "setting": "EAE; administered in solution", "result": "ineffective"}, {"measurement": "immunogen: priming for T cell reactivity and induction of EAE", "setting": "EAE; after immunisation", "result": "very effective immunogen"}]}
{"substance": "NPILLWQPIPVHTVPLSEDQ (H-NPILLWQPIPVHTVPLSEDQ-NH2) [Peptide J, reference compound]", "values": [{"measurement": "affinity for MHCII (known)", "setting": "MHCII", "result": "good affinity"}]}
